Test system: not given
Experiment: not given
Conditions: not given

Molecule `CCS(=O)(=O)c1cc(OCCCCCCc2cccc(OCCCC(=O)O)c2CCC(=O)O)cc(-c2ccc3c(c2)OCO3)c1` [Example 47, 4-[3-[6-(3-Benzo[1,3]dioxol-5-yl-5-ethanesulfonyl-phenoxy)-hexyl]-2-(2-carboxy-ethyl)-phenoxy]-butyric Acid] has a melting point of 134 to 135 °C.

Test system: BLT1 and BLT2 receptors (HL-60 cells)
Experiment: Ca2+ flux assay for LTB4 antagonist assay (HL-60 FLIPR)
Format: cell-based, Human
Conditions: Retinoic acid induced HL-60 cells, inhibition of LTB4-induced Ca2+ flux, 30 min preincubation; read-out: LTB4 antagonism (HL-60 FLIPR) IC50
Protocol: Ca^2+ Flux Assay for LTB4 Antagonist Assay
Human leukemia HL-60 cells endogenously expressing BLT1 and BLT2 receptors were cultured in RPMI-1640 medium supplemented with 20% fetal bovine serum, 2 mM glutamine, 100 U/mL penicillin and 100 ug/mL streptomycin.
Seventy two hours prior to experiment cells are counted using ViaCount reagent, centrifuged and resuspended at 2.0×10^5 cells/mL density with the complete growth media containing 1 μM Retinoic Acid (Sigma).
On a day of the experiment loading buffer (Calcium-3 Assay Kit, Molecular Devices) was prepared by dissolving the contents of one vial (Express Kit) into 500 mL Hank's Balanced Salt Solution containing 20 mM HEPES and 5 mM probenecid. Equal volume of the loading buffer was mixed with the replacement buffer (Hank's Balanced Salt Solution containing 20 mM HEPES, 0.05% BSA and 5 mM probenecid). Retinoic Acid induced HL-60 cells were counted using ViaCount reagent, centrifuged and resuspended at 2.0×10^6 cells/mL density with the loading buffer/replacement buffer, dispensed into 384 well black/clear microplates (Falcon)(25 μL/well) and placed in a 37° C./5% CO2 incubator for 1 hour.
During the incubation, test compounds were prepared at 6× the desired concentration in HBSS/20 mM HEPES/0.05% BSA as well as LTB4 (Biomol) was prepared at 2.2× concentration in HBSS/20 mM HEPES/0.5% BSA buffer.
After the incubation, both the cell and compound plates were brought to the FLIPR and 5 μL of the diluted compounds were transferred to the cell plates by the FLIPR. Plates were then incubated for 30 min at room temperature. After the ½ hour incubation, plates were returned to the FLIPR and 25 μL of 2.2×LTB4 was added to the cell plates. During the assay, fluorescence readings were taken simultaneously from all 384 wells of the cell plate every 1.5 seconds. Five readings were taken to establish a stable baseline, then 25 μL (LTB4) of sample was rapidly and simultaneously added to each well of the cell plate. The fluorescence was continuously monitored before, during and after sample addition for a total elapsed time of 100 seconds. Responses (increase in peak fluorescence) in each well following agonist addition was determined. The initial fluorescence reading from each well, prior to ligand stimulation, was used a zero baseline value for the data from that well. The responses are expressed as % inhibition of the neutral control (neural control: wells that received buffer plus DMSO but no test compound).

Going from `CS(=O)(=O)c1cc(OCCCCCCc2cccc(OCCCC(=O)O)c2CCC(=O)O)cc(-c2ccc3c(c2)OC(F)(F)O3)c1` [Example 46, 4-(2-(2-Carboxy-ethyl)-3-{6-[3-(2,2-difluoro-benzo[1,3]dioxol-5-yl)-5-methanesulfonyl-phenoxy]-hexyl}-phenoxy)-butyric Acid] to `CS(=O)(=O)c1cc(OCCCCCCc2cccc(OCCCC(=O)O)c2CCC(=O)O)cc(-c2ccc3c(c2)OCO3)c1` [Example 40, 4-[3-[6-(3-Benzo[1,3]dioxol-5-yl-5-methanesulfonyl-phenoxy)-hexyl]-2-(2-carboxy-ethyl)-phenoxy]-butyric Acid], the IC50 falls from 0.24 nM to 0.09 nM (2.7-fold). The second is the more potent here.

Compared with `CCS(=O)(=O)c1cc(OCCCCCCc2cccc(OCCCC(=O)O)c2CCC(=O)O)cc(-c2ccsc2)c1` [Example 52, 4-[2-(2-Carboxy-ethyl)-3-[6-(3-ethanesulfonyl-5-thiophen-3-yl-phenoxy)-hexyl]-phenoxy]-butyric Acid], `CS(=O)(=O)c1cc(OCCCCCCc2cccc(OCCCC(=O)O)c2CCC(=O)O)cc(-c2ccsc2)c1` [Example 12, 4-{2-(2-Carboxy-ethyl)-3-[6-(3-methanesulfonyl-5-thiophen-3-yl-phenoxy)-hexyl]-phenoxy}-butyric Acid] is 2.4-fold lower in IC50: 1.04 nM for the first, 0.44 nM for the second.

Compared with `CCCS(=O)(=O)c1cc(OCCCCCCc2cccc(OCCCC(=O)O)c2CCC(=O)O)cc(-c2ccc(F)cc2)c1` [Example 55, 4-[2-(2-Carboxy-ethyl)-3-[6-(5-(propane-1-sulfonyl)-4′-fluoro-biphenyl-3-yloxy)-hexyl]-phenoxy]-butyric Acid], `CCS(=O)(=O)c1cc(OCCCCCCc2cccc(OCCCC(=O)O)c2CCC(=O)O)cc(-c2ccc(F)cc2)c1` [Example 51, 4-[2-(2-Carboxy-ethyl)-3-[6-(5-ethanesulfonyl-4′-fluoro-biphenyl-3-yloxy)-hexyl]-phenoxy]-butyric Acid] is 23-fold lower in IC50: 63.8 nM for the first, 2.8 nM for the second.

Going from `CS(=O)(=O)c1cc(Nc2ccccc2)cc(OCCCCCCc2cccc(OCCCC(=O)O)c2CCC(=O)O)c1` [Example 26, 4-{2-(2-Carboxy-ethyl)-3-[6-(3-methanesulfonyl-5-phenylamino-phenoxy)-hexyl]-phenoxy}-butyric Acid] to `CS(=O)(=O)c1cc(OCCCCCCc2cccc(OCCCC(=O)O)c2CCC(=O)O)cc(-c2ccccc2)c1` [Example 28, 4-{2-(2-Carboxy-ethyl)-3-[6-(5-methanesulfonyl-biphenyl-3-yloxy)-hexyl]-phenoxy}-butyric Acid], the IC50 falls from 47.1 nM to 0.38 nM (120-fold). The second is the more potent here.

First: CS(=O)(=O)c1cc(OCCCCCCc2cccc(OCCCC(=O)O)c2CCC(=O)O)cc(-c2ccc(F)cc2)c1 [Example 8, 4-{2-(2-Carboxy-ethyl)-3-[6-(4′-fluoro-5-methanesulfonyl-biphenyl-3-yloxy)-hexyl]-phenoxy}-butyric Acid]
Second: CS(=O)(=O)c1cc(OCCCCCCc2cccc(OCCCC(=O)O)c2CCC(=O)O)cc(-c2ccc(O)cc2)c1 [Example 5, 4-{2-(2-Carboxy-ethyl)-3-[6-(4′-hydroxy-5-methanesulfonyl-biphenyl-3-yloxy)-hexyl]-phenoxy}-butyric Acid]
The IC50 of the first is 3.2-fold lower: 0.38 nM for the first, 1.22 nM for the second. The first is the more potent here.

Compared with `CC(C)S(=O)(=O)c1cc(OCCCCCCc2cccc(OCCCC(=O)O)c2CCC(=O)O)cc(-c2ccc(F)cc2)c1` [Example 60, 4-[2-(2-Carboxy-ethyl)-3-[6-(5-(propane-2-sulfonyl)-4′-fluoro-biphenyl-3-yloxy)-hexyl]-phenoxy]-butyric Acid], `COc1ccc(-c2cc(OCCCCCCc3cccc(OCCCC(=O)O)c3CCC(=O)O)cc(S(C)(=O)=O)c2)cc1` [Example 29, 4-{2-(2-Carboxy-ethyl)-3-[6-(5-methanesulfonyl-4′-methoxy-biphenyl-3-yloxy)-hexyl]-phenoxy}-butyric Acid] is 130-fold lower in IC50: 15.3 nM for the first, 0.12 nM for the second.

`CCc1ccc(-c2cc(OCCCCCCc3cccc(OCCCC(=O)O)c3CCC(=O)O)cc(S(C)(=O)=O)c2)cc1` [Example 13, 4-{2-(2-Carboxy-ethyl)-3-[6-(4′-ethyl-5-methanesulfonyl-biphenyl-3-yloxy)-hexyl]-phenoxy}-butyric Acid] and `CS(=O)(=O)c1cc(OCCCCCCc2cccc(OCCCC(=O)O)c2CCC(=O)O)cc(-c2cccc(F)c2)c1` [Example 27, 4-{2-(2-Carboxy-ethyl)-3-[6-(3′-fluoro-5-methanesulfonyl-biphenyl-3-yloxy)-hexyl]-phenoxy}-butyric Acid] are within 1.5-fold of each other in IC50: 0.91 nM for the first, 0.9 nM for the second.

Compared with `CS(=O)(=O)c1cc(OCCCCCCc2cccc(OCCCC(=O)O)c2CCC(=O)O)cc(-c2ccc3c(c2)OCCO3)c1` [Example 41, 4-(2-(2-Carboxy-ethyl)-3-{6-[3-(2,3-dihydro-benzo[1,4]dioxin-6-yl)-5-methanesulfonyl-phenoxy]-hexyl}-phenoxy)-butyric Acid], `CCS(=O)(=O)c1cc(OCCCCCCc2cccc(OCCCC(=O)O)c2CCC(=O)O)cc(-c2ccc3c(c2)OCO3)c1` [Example 47, 4-[3-[6-(3-Benzo[1,3]dioxol-5-yl-5-ethanesulfonyl-phenoxy)-hexyl]-2-(2-carboxy-ethyl)-phenoxy]-butyric Acid] is 1.7-fold lower in IC50: 0.47 nM for the first, 0.27 nM for the second. The second is the more potent here.

Compared with `CS(=O)(=O)c1cc(OCCCCCCc2cccc(OCCCC(=O)O)c2CCC(=O)O)cc(Oc2ccc(Cl)cc2)c1` [Example 23, 4-(2-(2-Carboxy-ethyl)-3-{6-[3-(4-chloro-phenoxy)-5-methanesulfonyl-phenoxy]-hexyl}-phenoxy)-butyric Acid], `Cc1ccc(-c2cc(OCCCCCCc3cccc(OCCCC(=O)O)c3CCC(=O)O)cc(S(C)(=O)=O)c2)cc1F` [Example 11, 4-{2-(2-Carboxy-ethyl)-3-[6-(3′-fluoro-5-methanesulfonyl-4′-methyl-biphenyl-3-yloxy)-hexyl]-phenoxy}-butyric Acid] is 1100-fold lower in IC50: 361 nM for the first, 0.32 nM for the second. The second is the more potent here.

Going from `CS(=O)(=O)c1cc(OCCCCCCc2cccc(OCCCC(=O)O)c2CCC(=O)O)cc(-c2ccc3scnc3c2)c1` [Example 45, 4-[3-[6-(3-Benzothiazol-5-yl-5-methanesulfonyl-phenoxy)-hexyl]-2-(2-carboxy-ethyl)-phenoxy]-butyric Acid] to `CS(=O)(=O)c1cc(OCCCCCCc2cccc(OCCCC(=O)O)c2CCC(=O)O)cc(-c2cscn2)c1` [Example 21, 4-{2-(2-Carboxy-ethyl)-3-[6-(3-methanesulfonyl-5-thiazol-4-yl-phenoxy)-hexyl]-phenoxy}-butyric Acid], the IC50 rises from 0.2 nM to 261 nM (1300-fold). The first is the more potent here.
